Data published in ChEMBL document CHEMBL1201862, “PubChem BioAssay data set” (2004).
Active and inactive are the calls of the source. Cut-off read from the data, not from the text of the source, for most assays here: actives have a measured EC50 and inactives only a lower limit.

Assays:
[1] = biological target: T1, RNA-binding protein pos-1 (Caenorhabditis elegans, UniProt G5EF15); experiment: inhibitors of POS-1/mex-3 RNA binding, dose response, biochemical, fluorescence polarization (AID 1964);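 note: purified POS-1 fused to maltose binding protein made in E. coli; potency of compounds blocking POS-1 binding to fluorescent RNA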
T1 sequence (G5EF15 whole entry): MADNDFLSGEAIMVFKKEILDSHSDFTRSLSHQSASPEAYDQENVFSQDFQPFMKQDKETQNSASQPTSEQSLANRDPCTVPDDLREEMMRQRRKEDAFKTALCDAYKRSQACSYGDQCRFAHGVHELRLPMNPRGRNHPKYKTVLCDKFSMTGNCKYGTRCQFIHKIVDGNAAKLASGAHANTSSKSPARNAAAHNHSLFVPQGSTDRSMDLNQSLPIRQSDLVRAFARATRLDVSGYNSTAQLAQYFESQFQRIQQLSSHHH

[2] = biological target: T2, Zinc finger protein mex-5 (Caenorhabditis elegans, UniProt Q9XUB2); experiment: MEX-5/TCR-2 RNA interaction inhibitors, dose response, biochemical, C. elegans, fluorescence polarization (AID 1960)
T2 sequence (Q9XUB2 whole entry): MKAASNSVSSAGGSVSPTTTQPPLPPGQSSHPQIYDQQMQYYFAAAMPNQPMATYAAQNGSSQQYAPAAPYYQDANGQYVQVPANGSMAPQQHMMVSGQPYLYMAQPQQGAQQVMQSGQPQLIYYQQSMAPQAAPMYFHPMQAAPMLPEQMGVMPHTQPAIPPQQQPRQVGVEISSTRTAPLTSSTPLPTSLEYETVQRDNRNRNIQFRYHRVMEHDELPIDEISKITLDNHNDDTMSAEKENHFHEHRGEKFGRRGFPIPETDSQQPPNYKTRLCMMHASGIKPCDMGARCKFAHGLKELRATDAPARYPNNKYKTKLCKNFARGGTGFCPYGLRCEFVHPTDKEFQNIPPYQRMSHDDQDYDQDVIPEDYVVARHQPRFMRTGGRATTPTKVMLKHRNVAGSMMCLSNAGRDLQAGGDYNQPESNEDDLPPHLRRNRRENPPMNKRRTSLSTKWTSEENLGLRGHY

[3] = biological target: FAD-linked sulfhydryl oxidase ALR (Homo sapiens, UniProt P55789); experiment: inhibitors of human ALR sulfhydryl oxidase, dose response, biochemical, H2O2 detection, luminescence, cherry-pick (AID 493248)
Chain of FAD-linked sulfhydryl oxidase ALR (P55789 whole entry): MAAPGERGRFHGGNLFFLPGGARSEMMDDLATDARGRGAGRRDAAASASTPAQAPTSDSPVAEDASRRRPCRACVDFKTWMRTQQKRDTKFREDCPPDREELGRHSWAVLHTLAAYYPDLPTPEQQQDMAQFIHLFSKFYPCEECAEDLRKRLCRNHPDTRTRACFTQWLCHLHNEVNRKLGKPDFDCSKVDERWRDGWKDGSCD

[4] = Luminescence Cell-Based Dose Retest to Confirm Inhibitors of Cancer Stem Cells. [Related pubchem assays (depositor defined):AID2717, AID2721]; format: functional; details: Homo sapiens
[5] = biological target: T3, Corticotropin-releasing factor receptor 2/Corticotropin-releasing factor-binding protein (Homo sapiens, UniProt P24387+Q13324); experiment: activators of CRF receptor 2 with binding protein – uHTS hits, confirmation (AID 602473); format: functional; details: read-out: EC50_Mean
T3 sequence (Q13324 whole entry): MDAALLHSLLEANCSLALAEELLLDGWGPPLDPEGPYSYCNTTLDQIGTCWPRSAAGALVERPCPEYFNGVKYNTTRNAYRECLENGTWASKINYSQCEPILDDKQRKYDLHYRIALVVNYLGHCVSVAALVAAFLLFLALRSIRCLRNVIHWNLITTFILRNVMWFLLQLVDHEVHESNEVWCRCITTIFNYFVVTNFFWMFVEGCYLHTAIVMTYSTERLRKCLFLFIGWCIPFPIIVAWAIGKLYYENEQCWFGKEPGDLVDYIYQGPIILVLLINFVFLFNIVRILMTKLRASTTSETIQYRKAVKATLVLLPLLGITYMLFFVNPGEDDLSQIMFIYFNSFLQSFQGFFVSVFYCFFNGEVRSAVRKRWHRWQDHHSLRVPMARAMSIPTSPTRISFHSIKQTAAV
T3 sequence (P24387 whole entry): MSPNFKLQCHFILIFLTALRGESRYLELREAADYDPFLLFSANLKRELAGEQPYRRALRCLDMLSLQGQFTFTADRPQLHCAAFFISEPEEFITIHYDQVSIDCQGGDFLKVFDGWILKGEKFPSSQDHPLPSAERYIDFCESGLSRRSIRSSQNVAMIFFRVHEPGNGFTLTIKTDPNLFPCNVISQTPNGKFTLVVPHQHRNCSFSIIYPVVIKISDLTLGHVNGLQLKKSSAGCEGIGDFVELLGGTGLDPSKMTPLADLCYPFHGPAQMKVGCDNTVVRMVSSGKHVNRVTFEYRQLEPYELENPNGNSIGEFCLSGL

[6] = cytotoxicity toward NIH3T3 fibroblasts, dose response, counter-screen, cell-based, ATP luminescence, mouse fibroblasts (AID 2010); format: functional;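 note: cells exposed to compound for about 90 hours before reading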
[7] = biological target: T4, Rac GTPase-activating protein 1 (Homo sapiens, UniProt Q9H0H5); experiment: MgcRacGAP GTPase-activating activity inhibitors, confirmation, biochemical, ADP Hunter fluorescence, primary and confirmatory (AID 624330); format: functional
T4 sequence (Q9H0H5 whole entry): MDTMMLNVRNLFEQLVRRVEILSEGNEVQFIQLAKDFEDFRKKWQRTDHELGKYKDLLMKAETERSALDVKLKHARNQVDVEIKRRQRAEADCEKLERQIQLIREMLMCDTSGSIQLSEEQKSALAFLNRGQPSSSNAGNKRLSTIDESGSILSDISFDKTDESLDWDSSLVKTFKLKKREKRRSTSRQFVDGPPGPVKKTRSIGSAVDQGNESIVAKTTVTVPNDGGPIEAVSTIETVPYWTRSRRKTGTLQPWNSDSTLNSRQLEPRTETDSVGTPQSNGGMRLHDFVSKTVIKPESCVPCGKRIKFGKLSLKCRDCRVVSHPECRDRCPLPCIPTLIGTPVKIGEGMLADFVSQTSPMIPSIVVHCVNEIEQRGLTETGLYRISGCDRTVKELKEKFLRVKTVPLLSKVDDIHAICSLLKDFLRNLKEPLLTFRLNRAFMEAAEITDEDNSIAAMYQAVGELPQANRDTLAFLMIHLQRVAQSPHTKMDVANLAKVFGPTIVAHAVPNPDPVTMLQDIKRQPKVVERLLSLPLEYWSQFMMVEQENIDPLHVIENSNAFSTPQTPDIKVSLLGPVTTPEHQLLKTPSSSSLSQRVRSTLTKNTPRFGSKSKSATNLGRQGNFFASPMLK

[8] = inhibitors of intracellular T. cruzi replication, confirmation, NIH3T3 host cells, beta-gal luminescence (AID 2044); format: functional, cell-based;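 note: intracellular parasites grown in NIH/3T3 mouse fibroblasts as host cells; luminescent beta-galactosidase reporter signal from transgenic T. cruzi replicating inside host cells; inhibitors lower the luminescence signal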
[9] = HEp-2 cell cytotoxicity, dose response, cytotoxicity control for RSV inhibitor project, HTS (AID 2410); format: functional; details: human respiratory syncytial virus
[10] = biological target: Luciferin 4-monooxygenase (Photinus pyralis, UniProt P08659); experiment: firefly luciferase enzyme inhibitors, dose response, biochemical, luminescence (AID 1891)
Chain of Luciferin 4-monooxygenase (P08659 whole entry): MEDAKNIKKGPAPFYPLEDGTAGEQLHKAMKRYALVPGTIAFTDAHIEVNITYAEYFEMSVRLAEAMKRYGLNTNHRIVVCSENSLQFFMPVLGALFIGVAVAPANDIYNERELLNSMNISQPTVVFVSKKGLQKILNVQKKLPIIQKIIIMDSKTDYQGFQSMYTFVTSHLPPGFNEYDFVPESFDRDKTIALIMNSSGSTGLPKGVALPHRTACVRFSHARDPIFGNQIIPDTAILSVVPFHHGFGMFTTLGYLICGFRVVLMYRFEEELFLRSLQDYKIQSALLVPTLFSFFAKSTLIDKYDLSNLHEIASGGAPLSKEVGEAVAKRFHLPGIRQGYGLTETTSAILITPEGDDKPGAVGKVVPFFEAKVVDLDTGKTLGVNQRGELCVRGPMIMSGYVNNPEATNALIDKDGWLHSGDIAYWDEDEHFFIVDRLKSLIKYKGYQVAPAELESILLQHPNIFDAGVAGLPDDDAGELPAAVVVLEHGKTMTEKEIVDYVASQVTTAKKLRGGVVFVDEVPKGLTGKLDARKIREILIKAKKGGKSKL

[11] = Luminescence Cell-Based Dose Confirmation HTS to Identify Inhibitors of Platelet Dense Granule Release. [Related pubchem assays: 1663 (Primary HTS), 1678 (Summary of Project)]; format: functional
[12] = test system: Streptococcus sp. 'group A'; experiment: growth inhibition of control SK(-) GAS strain, dose response, counter-screen for streptokinase expression inhibitor project, luminescence, kanamycin, BacTiterGlo, confirmation (AID 1900); format: functional, organism-based
Streptococcus = experiment: Group A Streptococcus viability loss, dose response, counter-screen for streptokinase expression inhibitor project, luminescence, BacTiterGlo (AID 1915); format: functional, organism-based;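 note: potency for reduction of bacterial viability or growth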
Streptokinase A = biological target: T5, Streptokinase A (Streptococcus pyogenes serotype M1, UniProt P10520); experiment: S. pyogenes streptokinase expression inhibitors, potency, dose response, plasminogen activation absorbance, OD405 (AID 1914); format: functional, Streptococcus pyogenes M1 GAS;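 note: secreted streptokinase activity via plasminogen activation per viability signal from cell pellet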
T5 sequence (P10520 whole entry): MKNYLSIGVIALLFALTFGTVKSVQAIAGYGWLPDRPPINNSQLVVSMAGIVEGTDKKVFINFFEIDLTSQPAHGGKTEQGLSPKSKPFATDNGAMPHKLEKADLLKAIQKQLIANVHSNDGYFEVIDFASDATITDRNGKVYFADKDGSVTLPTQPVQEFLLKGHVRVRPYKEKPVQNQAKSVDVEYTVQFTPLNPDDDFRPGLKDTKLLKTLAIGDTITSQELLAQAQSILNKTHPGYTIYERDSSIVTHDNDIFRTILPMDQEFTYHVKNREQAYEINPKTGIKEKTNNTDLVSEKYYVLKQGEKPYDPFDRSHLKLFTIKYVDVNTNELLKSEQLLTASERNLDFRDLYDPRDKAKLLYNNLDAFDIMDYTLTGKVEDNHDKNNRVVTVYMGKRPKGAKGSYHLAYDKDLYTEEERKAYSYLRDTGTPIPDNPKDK

Compound | EC50 [1] | EC50 [2] | AC50 [3] | other results
COc1cccc(C2(O)CCN(CC(=O)Nc3nc(C)cs3)CC2)c1 | > 300 µM (not active) | > 300 µM (not active) | – | –
CCCCC1=CC2=CC(=O)C(C)(OC(=O)c3cnc4ccccc4n3)C(=O)C2=CO1 (stereo not given) | 19.9 µM (active) | 19 µM (active) | – | –
CCOC(=O)c1ccc(-n2c(CCC(=O)O)ccc2-c2ccccc2)cc1 | > 300 µM (not active) | > 300 µM (not active) | – | –
Cc1ccc(-c2cn3c(n2)SCC3)cc1 | – | – | 0.513 µM (active) | –
CC(=O)NCCNc1ccc([N+](=O)[O-])cc1C#N | > 300 µM (not active) | > 300 µM (not active) | – | –
CCCOC(=O)C(=O)NNc1ccccc1 | – | – | – | AC50 [4]: 0.95 µM (active)
CC(=O)N1N=C2C3CCN(CC3)C2C1c1cccc2ccccc12 (stereo not given) | – | – | – | EC50 [5]: > 53 µM (inactive)
COc1cc(/C=C(\C#N)C(=O)NCCc2ccccc2)cc(OC)c1O | – | – | – | EC50 [5]: > 53 µM (inactive)
COc1cc(C)c(N)cc1C(C)C | – | – | 0.027 µM (active) | EC50 [6]: > 60 µM (not active); IC50 [7]: 113 µM (active); EC50 [8]: 16.9 µM (active)
CC(NC(=O)c1ccc(N2CCNCC2)c([N+](=O)[O-])c1)C12CC3CC(CC(C3)C1)C2 (stereo not given) | – | – | – | CC50 [9]: 16 µM (active); AC50 [4]: 10.2 µM (active)
Oc1ccccc1-c1nnc(S)n1Cc1ccco1 | – | – | 4.75 µM (active) | –
CCn1c2ccccc2c2cc(NC(=O)CSc3nnc(-c4cccc(Cl)c4)o3)ccc21 | – | – | – | EC50 [10]: > 112 µM (not active); EC50 [11]: > 112 µM (not active)
CCN(CC)c1ccc(NC(=O)CN2CCN(c3nc(C)cc(C)n3)CC2)cc1 | – | – | 1.03 µM (active) | –
COc1ccc(N2CCN(C(=O)CCNC(=O)c3ccc(C(C)(C)C)cc3)CC2)cc1 | – | – | 10.1 µM (active) | –
N#CC1=C(N)C(C#N)(C#N)C(c2cccnc2)C2CCCC=C12 (stereo not given) | 22.2 µM (active) | 17.5 µM (active) | – | –
COc1cc(OC)cc(C(=O)Nc2ccc(S(=O)(=O)Nc3cc(C)nc(C)n3)cc2)c1 | – | – | 1.68 µM (active) | –
CC(=O)Nc1ccc2nc(NC(=O)c3cccs3)sc2c1 | – | – | – | EC50 [10]: 2.26 µM (active); EC50 [11]: 6.27 µM (active)

Compound | EC50 [1] | EC50 [2] | AC50 [3] | other results
CC1CCN(C(=S)c2ccc(N(C)C)cc2)CC1 | – | – | 0.915 µM (active) | –
Cc1c(C(=O)N(C)C)c2cc(Cl)ccc2n1O | – | – | 0.722 µM (active) | –
N#CC(C#N)=Cc1ccc(-c2ccc(S(=O)(=O)NC(=N)N)cc2)o1 | > 300 µM (not active) | 236 µM (active) | – | –
Cc1cc2c(cc(C(=O)O)n2C)s1 | – | – | 30.9 µM (active) | –
Cc1onc(-c2c(F)cccc2Cl)c1C(=O)N1CCCc2ccccc21 | > 300 µM (not active) | > 300 µM (not active) | – | –
CCc1nc(N2CCC(C)CC2)c2oc3ccccc3c2n1 | – | – | – | AC50 [4]: 4.63 µM (active)
CC(C)Oc1ccc(N2CC(C(=O)Nc3ccc(N4CCOCC4)cc3)CC2=O)cc1 (stereo not given) | – | – | – | EC50 [10]: > 112 µM (not active); EC50 [11]: > 112 µM (not active)
C1=C(c2sc3ccccc3c2-c2ccc(OCCN3CCOCC3)cc2)CCCC1 | – | – | – | AC50 [4]: 2.71 µM (active)
CCCc1cc(O)nc(SCC(=O)Nc2sc(C(N)=O)c(C)c2C(=O)OCCOC)n1 | – | – | – | AC50 [4]: 3.6 µM (active)
O=CN/N=C/c1c(O)ccc2ccccc12 | > 300 µM (not active) | 5.35 µM (active) | – | –
C(=N\N=C(\Nc1ccccc1)c1ccccn1)/c1ccccn1 | > 300 µM (inconclusive) | – | – | –
C/C(=N\C1CCCC1)c1c(C)[nH]n(-c2nc3ccccc3s2)c1=O | > 300 µM (not active) | > 300 µM (not active) | 1.24 µM (active) | –
CC(=O)N(C)c1ccc(/N=N/c2c(C)[nH]n(C(N)=S)c2=O)cc1 | > 300 µM (not active) | 24.2 µM (active) | – | –
C/C(CC(=O)Nc1ccc(Cl)c(C(F)(F)F)c1)=N\NC(=O)c1cc2ccccc2cc1O | – | – | – | EC50 [12]: 1.57 µM (active); EC50 (Streptococcus): 8.14 µM (active); AC50 [4]: 8.61 µM (active); EC50 (Streptokinase A): > 150 µM (not active)
Oc1c(/C=N/c2ccccc2Cl)[nH]c2ccccc12 | > 300 µM (not active) | > 300 µM (not active) | – | –
Cc1ccc2nc(C)cc(N/N=C/c3ccccc3O)c2c1 | – | – | 4.03 µM (active) | –
